Test results taken from ChEMBL document CHEMBL1777682, “NMR evaluation of interactions between substituted-indole and PDZ1 domain of PSD-95” (Bioorg Med Chem Lett, 2011).
Activity calls are given as the source filed them. No cut-off for these calls is given here.

Biological target: Disks large homolog 4 (Homo sapiens) (UniProt P78352)
Assay: Binding affinity to recombinant 15N-labelled PSD95-PDZ1 domain expressed in Escherichia coli BL21 assessed as chemical shift perturbation by NMR spectra analysis

Chain of Disks large homolog 4 (Homo sapiens) (P78352 whole entry, looked up, the tested form may be a part): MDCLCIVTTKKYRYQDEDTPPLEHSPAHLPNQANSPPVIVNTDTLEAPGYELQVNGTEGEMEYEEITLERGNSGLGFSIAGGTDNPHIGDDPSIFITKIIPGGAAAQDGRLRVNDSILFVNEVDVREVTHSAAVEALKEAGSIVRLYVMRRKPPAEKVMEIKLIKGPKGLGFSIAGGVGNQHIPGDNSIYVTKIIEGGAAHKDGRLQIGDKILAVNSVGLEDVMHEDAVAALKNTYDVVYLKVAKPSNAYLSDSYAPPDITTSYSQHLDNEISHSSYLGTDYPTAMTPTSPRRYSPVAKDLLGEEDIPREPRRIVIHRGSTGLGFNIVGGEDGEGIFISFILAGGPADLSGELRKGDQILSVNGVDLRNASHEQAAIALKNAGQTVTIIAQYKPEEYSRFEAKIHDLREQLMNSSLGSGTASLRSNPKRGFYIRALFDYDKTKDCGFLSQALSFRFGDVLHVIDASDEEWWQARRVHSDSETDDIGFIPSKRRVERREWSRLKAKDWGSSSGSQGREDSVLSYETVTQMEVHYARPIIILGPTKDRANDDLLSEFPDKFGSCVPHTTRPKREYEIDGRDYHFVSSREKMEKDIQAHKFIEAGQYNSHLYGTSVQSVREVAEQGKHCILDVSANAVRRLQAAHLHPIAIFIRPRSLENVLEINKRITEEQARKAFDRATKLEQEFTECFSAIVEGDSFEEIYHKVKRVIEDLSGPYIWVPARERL

Row | SMILES | Activity
1 | Cc1cc2c(C)c(C(=O)O)n(C)c2cc1C(=O)O | inactive
2 | Cc1cc2cc(C(=O)O)[nH]c2cc1C(=O)O | inactive
3 | Cc1c(C(=O)O)[nH]c2ccc(C(=O)O)cc12 | Active

Continued, values first:

Row | Activity | SMILES
4 | inactive | COC(=O)c1cc2c(C)c(C(=O)O)[nH]c2cc1C
5 | Active | Cc1cc2[nH]c(C(=O)O)c(C)c2cc1C(=O)O
6 | Active | Cc1cc2c(C)c(C(=O)O)[nH]c2cc1C(=O)O
7 | inactive | COC(=O)c1cc2[nH]c(C(=O)O)c(C)c2cc1C
8 | inactive | CCOC(=O)c1ccc2[nH]c(C(=O)O)c(C)c2c1
